PMC10866072, “Design, synthesis, molecular modelling and biological evaluation of novel 6-amino-5-cyano-2-thiopyrimidine derivatives as potent anticancer agents against leukemia and apoptotic inducers” (Journal of Enzyme Inhibition and Medicinal Chemistry, 2024)

Legend:
RPMI-8226 = type: cell-based; conditions: Homo sapiens, one dose 10^-5 M, 48 h
TK-10 = type: cell-based; conditions: Homo sapiens, one dose 10^-5 M, 48 h
NCI-H226 = type: cell-based; conditions: Homo sapiens, one dose 10^-5 M, 48 h
SNB-75 = type: cell-based; conditions: Homo sapiens, one dose 10^-5 M, 48 h
KM12 = type: cell-based; conditions: Homo sapiens, one dose 10^-5 M, 48 h
CCRF-CEM = type: cell-based; conditions: Homo sapiens, one dose 10^-5 M, 48 h
UACC-257 = type: cell-based; conditions: Homo sapiens, one dose 10^-5 M, 48 h
SK-OV-3 = type: cell-based; conditions: Homo sapiens, one dose 10^-5 M, 48 h
PC-3 = type: cell-based; conditions: Homo sapiens, one dose 10^-5 M, 48 h
HCT-15 = type: cell-based; conditions: Homo sapiens, one dose 10^-5 M, 48 h, read-out: % growth
NCI-H23 = type: cell-based; conditions: Homo sapiens, one dose 10^-5 M, 48 h, read-out: % growth
COLO 205 = type: cell-based; conditions: Homo sapiens, one dose 10^-5 M, 48 h
BT-549 = type: cell-based; conditions: Homo sapiens, one dose 10^-5 M, 48 h
NCI/ADR-RES = type: cell-based; conditions: Homo sapiens, one dose 10^-5 M, 48 h
SW-620 = type: cell-based; conditions: Homo sapiens, one dose 10^-5 M, 48 h
OVCAR-4 = type: cell-based; conditions: Homo sapiens, one dose 10^-5 M, 48 h
OVCAR-5 = type: cell-based; conditions: Homo sapiens, one dose 10^-5 M, 48 h
T-47D = type: cell-based; conditions: Homo sapiens, T47D, one dose 10^-5 M, 48 h, read-out: % growth
U251 = type: cell-based; conditions: Homo sapiens, U-251, one dose 10^-5 M, 48 h
MDA-MB-468 = type: cell-based; conditions: Homo sapiens, one dose 10^-5 M, 48 h
DU-145 = type: cell-based; conditions: Homo sapiens, one dose 10^-5 M, 48 h
HCC-2998 = type: cell-based; conditions: Homo sapiens, one dose 10^-5 M, 48 h
MCF7 = type: cell-based; conditions: Homo sapiens, one dose 10^-5 M, 48 h, read-out: % growth
MDA-MB-231/ATCC = type: cell-based; conditions: Homo sapiens, one dose 10^-5 M, 48 h
SK-MEL-5 = type: cell-based; conditions: Homo sapiens, one dose 10^-5 M, 48 h, read-out: % growth
A549/ATCC = type: cell-based; conditions: Homo sapiens, one dose 10^-5 M, 48 h
EKVX = type: cell-based; conditions: Homo sapiens, one dose 10^-5 M, 48 h
MALME-3M = type: cell-based; conditions: Homo sapiens, one dose 10^-5 M, 48 h
SF-295 = type: cell-based; conditions: Homo sapiens, one dose 10^-5 M, 48 h
NCI-H522 = type: cell-based; conditions: Homo sapiens, one dose 10^-5 M, 48 h
HCT-116 = type: cell-based; conditions: Homo sapiens, one dose 10^-5 M, 48 h, read-out: % growth
OVCAR-8 = type: cell-based; conditions: Homo sapiens, one dose 10^-5 M, 48 h
A498 = type: cell-based; conditions: Homo sapiens, one dose 10^-5 M, 48 h
K-562 = type: cell-based; conditions: Homo sapiens, K562, one dose 10^-5 M, 48 h
MOLT-4 = type: cell-based; conditions: Homo sapiens, one dose 10^-5 M, 48 h, read-out: % growth
IGROV1 = type: cell-based; conditions: Homo sapiens, IGROV-1, one dose 10^-5 M, 48 h, read-out: % growth
CAKI-1 = type: cell-based; conditions: Homo sapiens, CAKI-1, 48 h, one dose 10^-5 M, 48 h
SF-539 = type: cell-based; conditions: Homo sapiens, one dose 10^-5 M, 48 h
HS 578T = type: cell-based; conditions: Homo sapiens; one dose 10^-5 M, 48 h; HS 578T; read-out: % growth
UACC-62 = type: cell-based; conditions: Homo sapiens, one dose 10^-5 M, 48 h
SN12C = type: cell-based, human; conditions: Homo sapiens, one dose 10^-5 M, 48 h
HOP-62 = type: cell-based; conditions: Homo sapiens, one dose 10^-5 M, 48 h
[1] = system: full NCI 60 cell lines panel; conditions: for activity at 10 µM: Homo sapiens, 60 cell, 48 h, read-out: Mean % growth; for activity on all 60 cancer cell lines tested (in words): one dose
SR = type: cell-based; conditions: Homo sapiens, one dose 10^-5 M, 48 h
MDA-MB-435 = type: cell-based; conditions: Homo sapiens, one dose 10^-5 M, 48 h, read-out: % growth
ACHN = type: cell-based; conditions: Homo sapiens, one dose 10^-5 M, 48 h
SK-MEL-2 = type: cell-based; conditions: Homo sapiens, one dose 10^-5 M, 48 h
HL-60(TB) = type: cell-based; conditions: Homo sapiens, one dose 10^-5 M, 48 h
M14 = type: cell-based; conditions: Homo sapiens, one dose 10^-5 M, 48 h
SF-268 = type: cell-based; conditions: Homo sapiens, one dose 10^-5 M, 48 h, read-out: % growth
OVCAR-3 = type: cell-based; conditions: Homo sapiens, one dose 10^-5 M, 48 h
SK-MEL-28 = type: cell-based; conditions: Homo sapiens, one dose 10^-5 M, 48 h
NCI-H460 = type: cell-based; conditions: Homo sapiens, one dose 10^-5 M, 48 h, read-out: % growth
HOP-92 = type: cell-based; conditions: Homo sapiens, one dose 10^-5 M, 48 h
SNB-19 = type: cell-based; conditions: Homo sapiens, one dose 10^-5 M, 48 h, read-out: % growth
LOX IMVI = type: cell-based; conditions: Homo sapiens, one dose 10^-5 M, 48 h, read-out: % growth
UO-31 = type: cell-based; conditions: Homo sapiens, UO-31, 48 h, one dose 10^-5 M, 48 h
HT29 = type: cell-based; conditions: Homo sapiens, HT-29, one dose 10^-5 M, 48 h
786-0 = type: cell-based; conditions: Homo sapiens, one dose 10^-5 M, 48 h

CN(C)c1ccc(-c2nc(S)nc(N)c2C(=N)NN=Cc2ccc(Cl)cc2)cc1 [Compound 4b, 4-amino-N'-[(4-chlorophenyl)methylene]-6-[4-(dimethylamino)phenyl]-2-mercapto pyrimidine-5-carboximidohydrazide]
% growth at 10 µM (RPMI-8226): 79.1%
% cell growth at 10 µM (TK-10): 90%
% growth at 10 µM (NCI-H226): 99.8%
% growth at 10 µM (SNB-75): 95.2%
% growth at 10 µM (KM12): 92.9%
% cell growth at 10 µM (CCRF-CEM): 76.3%
percent cell growth at 10 µM (UACC-257): 99.7%
% growth at 10 µM (SK-OV-3): 120%
percent cell growth at 10 µM (PC-3): 91.5%
activity at 10 µM (HCT-15): 92.3%
activity at 10 µM (NCI-H23): 101%
% growth at 10 µM (COLO 205): 137%
% cell growth at 10 µM (BT-549): 95.7%
cell growth percent at 10 µM (NCI/ADR-RES): 104%
% growth at 10 µM (SW-620): 102%
% growth at 10 µM (OVCAR-4): 95.5%
percent cell growth at 10 µM (OVCAR-5): 109%
activity at 10 µM (T-47D): 88.3%
% growth at 10 µM (U251): 106%
percent cell growth at 10 µM (MDA-MB-468): 107%
% growth at 10 µM (DU-145): 100%
% growth at 10 µM (HCC-2998): 94.3%
activity at 10 µM (MCF7): 90.9%
% growth at 10 µM (MDA-MB-231/ATCC): 102%
activity at 10 µM (SK-MEL-5): 97.6%
% growth at 10 µM (A549/ATCC): 98.4%
% cell growth at 10 µM (EKVX): 91.8%
% growth at 10 µM (MALME-3M): 98.7%
% cell growth at 10 µM (SF-295): 96.8%
% growth at 10 µM (NCI-H522): 92.4%
activity at 10 µM (HCT-116): 100%
% growth of cells at 10 µM (OVCAR-8): 106%
% growth at 10 µM (A498): 92.1%
% growth at 10 µM (K-562): 98.5%
activity at 10 µM (MOLT-4): 101%
activity at 10 µM (IGROV1): 102%
% growth at 10 µM (CAKI-1): 102%
% growth at 10 µM (SF-539): 98%
activity at 10 µM (HS 578T): 97.5%
% growth at 10 µM (UACC-62): 94%
% growth at 10 µM (SN12C): 88.5%
% growth at 10 µM (HOP-62): 109%
activity at 10 µM [1]: 98.2%
activity on all 60 cancer cell lines tested (in words) [1]: weak activity
percent cell growth at 10 µM (SR): 98.7%
activity at 10 µM (MDA-MB-435): 96.2%
% growth at 10 µM (ACHN): 102%
% growth at 10 µM (SK-MEL-2): 107%
% growth at 10 µM (HL-60(TB)): 91.8%
% growth at 10 µM (M14): 96.9%
activity at 10 µM (SF-268): 97.5%
% growth at 10 µM (OVCAR-3): 102%
% cell growth at 10 µM (SK-MEL-28): 103%
activity at 10 µM (NCI-H460): 99.8%
% growth at 10 µM (HOP-92): 118%
activity at 10 µM (SNB-19): 98.8%
activity at 10 µM (LOX IMVI): 103%
% cell growth at 10 µM (UO-31): 65.4%
% growth at 10 µM (HT29): 92.7%
% growth at 10 µM (786-0): 86.7%

COc1ccc(/C=N\NC(=N)c2c(N)nc(S)nc2-c2ccc(N(C)C)cc2)cc1 [Compound 4d, 4-amino-N'-[(1Z)-(4-methoxyphenyl)methylene]-6-[4-(dimethylamino)phenyl]-2-mercapto pyrimidine-5-carboximidohydrazide]
% growth at 10 µM (RPMI-8226): 86.5%
% cell growth at 10 µM (TK-10): 103%
% growth at 10 µM (NCI-H226): 103%
% growth at 10 µM (SNB-75): 101%
% growth at 10 µM (KM12): 93.2%
% cell growth at 10 µM (CCRF-CEM): 78.9%
percent cell growth at 10 µM (UACC-257): 106%
% growth at 10 µM (SK-OV-3): 110%
percent cell growth at 10 µM (PC-3): 88.5%
activity at 10 µM (HCT-15): 98.2%
activity at 10 µM (NCI-H23): 103%
% growth at 10 µM (COLO 205): 118%
% cell growth at 10 µM (BT-549): 102%
cell growth percent at 10 µM (NCI/ADR-RES): 107%
% growth at 10 µM (SW-620): 103%
% growth at 10 µM (OVCAR-4): 96.8%
percent cell growth at 10 µM (OVCAR-5): 103%
activity at 10 µM (T-47D): 98.7%
% growth at 10 µM (U251): 106%
percent cell growth at 10 µM (MDA-MB-468): 114%
% growth at 10 µM (DU-145): 106%
% growth at 10 µM (HCC-2998): 108%
activity at 10 µM (MCF7): 95.2%
% growth at 10 µM (MDA-MB-231/ATCC): 103%
activity at 10 µM (SK-MEL-5): 102%
% growth at 10 µM (A549/ATCC): 103%
% cell growth at 10 µM (EKVX): 99%
% growth at 10 µM (MALME-3M): 98.4%
% cell growth at 10 µM (SF-295): 104%
% growth at 10 µM (NCI-H522): 93.3%
activity at 10 µM (HCT-116): 108%
% growth of cells at 10 µM (OVCAR-8): 104%
% growth at 10 µM (A498): 119%
% growth at 10 µM (K-562): 101%
activity at 10 µM (MOLT-4): 101%
activity at 10 µM (IGROV1): 104%
% growth at 10 µM (CAKI-1): 97.5%
% growth at 10 µM (SF-539): 108%
activity at 10 µM (HS 578T): 112%
% growth at 10 µM (UACC-62): 94.3%
% growth at 10 µM (SN12C): 100%
% growth at 10 µM (HOP-62): 106%
activity at 10 µM [1]: 101%
activity on all 60 cancer cell lines tested (in words) [1]: weak activity
percent cell growth at 10 µM (SR): 102%
activity at 10 µM (MDA-MB-435): 96.7%
% growth at 10 µM (ACHN): 103%
% growth at 10 µM (SK-MEL-2): 109%
% growth at 10 µM (HL-60(TB)): 93.8%
% growth at 10 µM (M14): 96.1%
activity at 10 µM (SF-268): 97%
% growth at 10 µM (OVCAR-3): 105%
% cell growth at 10 µM (SK-MEL-28): 105%
activity at 10 µM (NCI-H460): 106%
% growth at 10 µM (HOP-92): 109%
activity at 10 µM (SNB-19): 101%
activity at 10 µM (LOX IMVI): 101%
% cell growth at 10 µM (UO-31): 72%
% growth at 10 µM (HT29): 100%
% growth at 10 µM (786-0): 98.3%
